For the first experiment, the target named is human mGlu5 (Homo sapiens, UniProt P41594). Kind of experiment: Radioligand displacement assay (radiolabeled MPEP) on membranes of HEK293 cells stably expressing mGlu5. Particulars: Ki, radioligand displacement; mean ± SEM of two experiments. (In general: Displacement assays read how much labelled ligand stays bound in the presence of the test substance.)
human mGlu5, sequence (P41594 21-1212): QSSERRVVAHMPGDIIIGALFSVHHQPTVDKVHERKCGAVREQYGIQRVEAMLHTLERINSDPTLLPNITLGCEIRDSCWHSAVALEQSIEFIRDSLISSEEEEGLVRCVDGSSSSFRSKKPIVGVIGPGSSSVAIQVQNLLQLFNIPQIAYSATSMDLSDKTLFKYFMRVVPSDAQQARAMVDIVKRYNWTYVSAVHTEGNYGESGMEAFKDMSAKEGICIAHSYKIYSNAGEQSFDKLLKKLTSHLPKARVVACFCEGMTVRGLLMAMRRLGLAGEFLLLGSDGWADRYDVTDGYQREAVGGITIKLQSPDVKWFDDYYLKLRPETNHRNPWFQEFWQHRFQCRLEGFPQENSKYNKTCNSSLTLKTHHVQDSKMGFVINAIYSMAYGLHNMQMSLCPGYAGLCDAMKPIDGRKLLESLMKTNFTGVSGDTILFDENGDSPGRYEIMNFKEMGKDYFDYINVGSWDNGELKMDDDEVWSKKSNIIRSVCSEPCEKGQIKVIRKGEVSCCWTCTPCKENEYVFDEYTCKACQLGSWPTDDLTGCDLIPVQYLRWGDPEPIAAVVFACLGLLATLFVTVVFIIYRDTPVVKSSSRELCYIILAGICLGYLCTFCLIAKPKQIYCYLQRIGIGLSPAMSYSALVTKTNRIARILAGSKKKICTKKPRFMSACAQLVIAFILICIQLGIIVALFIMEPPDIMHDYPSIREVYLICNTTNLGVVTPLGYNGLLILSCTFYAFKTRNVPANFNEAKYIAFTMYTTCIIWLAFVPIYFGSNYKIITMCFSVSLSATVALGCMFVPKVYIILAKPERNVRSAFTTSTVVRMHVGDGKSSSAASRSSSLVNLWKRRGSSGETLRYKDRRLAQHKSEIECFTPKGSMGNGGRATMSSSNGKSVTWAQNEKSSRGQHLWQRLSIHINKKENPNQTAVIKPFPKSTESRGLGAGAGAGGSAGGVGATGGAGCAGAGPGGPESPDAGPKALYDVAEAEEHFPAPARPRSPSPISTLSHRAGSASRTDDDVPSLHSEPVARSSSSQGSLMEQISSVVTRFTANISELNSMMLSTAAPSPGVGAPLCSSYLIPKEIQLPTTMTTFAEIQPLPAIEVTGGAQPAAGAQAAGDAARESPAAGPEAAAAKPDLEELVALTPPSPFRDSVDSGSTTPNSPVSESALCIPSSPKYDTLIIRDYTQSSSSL
Description: Treated cells were harvested with PBS/2 mM EDTA and washed three times with ice-cold PBS and frozen at −80 °C. The frozen cell pellet was resuspended in membrane buffer (25 mM Tris/7.4, 250 mM sucrose, 2.5 mM EDTA, 2 ug/ml aprotinin, 0.5 ug/ml leupeptin and 200 nM PMSF) and homogenized with a polytron 20–30 s at maximum power. After centrifugation at 18,000 RPM for 30 min at 4 °C, the pellet was resuspended in ice-cold membrane buffer, hand-homogenized, and centrifuged as described above. This pellet was further resuspended in ice-cold membrane buffer. The protein content was measured using the Bradford method with bovine serum albumin as the standard. The membrane homogenate was frozen at −80 °C before use. After thawing, the membranes were washed once and resuspended in ice-cold 50 mM Tris–HCl, 0.9% NaCl, pH 7.4 buffer. All incubations were performed at room temperature. For the displacement binding experiments, 15 μg of membranes were incubated with 5 nM the radioligand in the presence of 10 varying concentrations of the test compound for 2 h at room temperature with shaking. At the end of the respective incubations, the suspension was filtered onto PerkinElmer GF/C glass fiber filters (1450–421) pre-soaked in 0.5% polyethyleneimine and washed rapidly four times using a Tomtec Harvester 96 Mach III cell harvester (Tomtec, Hamden, CT) with 5 mL of cold wash buffer (50 mM Tris–HCl, pH 7.4). The radioactivity trapped on the filters was measured after heat sealing the filters with MeltiLexTM A (PerkinElmer, 1450–441) in a 1450 MicroBeta TriLux counter (PerkinElmer). […] IC50 values were derived from the inhibition curve, and Ki values were calculated according to the Cheng-Prusoff equation of Ki = IC50/(1 + [L]/Kd),[61] where [L] is the concentration of radioligand and Kd is its dissociation constant at the receptor, derived from the saturation isotherm.
For the molecule `COc1ccc(Cn2cccc2-c2nc(-c3ccncc3)no2)cc1` [L3], the Ki (in general, the dissociation constant of the complex between target and ligand, obtained from inhibition or displacement) came to 3.6 ± 0.1 µM.
The same measure, in the same setting: as for `N#Cc1ccc(NCC#Cc2ccccc2)cc1` [F3], the figure is 3.4 ± 0.2 µM; as for `Cc1nc(-c2ccccc2)sc1C(C)N(C)C(=O)c1cnns1` (stereo not drawn) [L6], 7.3 ± 1.3 µM.
Same read-out and setting: as for `N#Cc1cccc(COc2ccccc2F)c1` [F4], the figure is 8.6 ± 0.1 µM; as for `CC(c1nc(-c2ccco2)no1)n1nnc(-c2cccc(F)c2)n1` (stereo not drawn) [L5], 4.3 ± 0.9 µM.
Still for that read-out and setting: as for `CN(Cc1cnn(-c2ccc(F)cc2)c1)c1nc(-c2ccccc2)no1` [L7], the figure is 7.9 ± 0.6 µM.
In turn, `CN(Cc1cnn(-c2ccccc2)c1)c1noc(-c2ccccc2)n1` [L4] registered a Ki of 4 ± 0.5 µM.

Still in this experiment, the particulars now being: Table S1; radioligand displacement at 30 µM; mean ± SEM of two experiments.
As for `CC[C@@H]1CCCC(C(=O)Nc2ccccc2)=C1O` [F46], the Inhibition – broadly, how much of the control response was suppressed – at 30 µM is recorded as 22 ± 1%.
Same read-out and setting: as for `CCc1noc(COc2cccc(NC(=O)c3ccccc3)c2)n1` [L37], the figure is 29 ± 4%; as for `CC(O)c1ccc(OCc2ccc(F)cc2)cc1` (stereo not drawn) [F47], 21 ± 3%; as for `CCOc1cccc(CNC(=O)C2CC=CC2)c1` [F7], 39 ± 7%.
Turning to `CC(O)c1cccc(OCc2ccccc2)c1` (stereo not drawn) [F27], the “Inhibition at 30 µM” value stood at 27 ± 3%.
With `CN(Cc1cc(-c2ccccc2)no1)C(=O)CCOc1ccccc1` [L40], the “Inhibition at 30 µM” value came to 27 ± 3%.
The same measure, in the same setting: as for `O=C(COc1ccccc1)Nc1cccc(NC(=O)c2ccncc2)c1` [L45], the figure is 25 ± 7%.
Take `COc1ccc(CNC(=O)c2ccncc2)cc1` [F42]: the “Inhibition at 30 µM” value is on record as 24 ± 8%.
Still for that read-out and setting: as for `Cn1ccnc1SCC=Cc1ccccc1` [F20], the figure is 31 ± 1%.
For the molecule `N#Cc1cc(CNc2ccn(-c3ncccc3Cl)n2)ccc1F` [L10], the “Inhibition at 30 µM” value stood at 41 ± 7%.
The same measure, in the same setting: as for `c1ccc(Cc2n[nH]c(-c3ccncc3)n2)cc1` [L36], the figure is 29 ± 8%; as for `O=C(CCc1cccnc1)N1CCCC(COc2cccc(F)c2)C1` (stereo not drawn) [L24], 32 ± 3%.
Same read-out and setting: as for `C=CCN1CC(c2nc3ccccc3[nH]2)CC1=O` (stereo not drawn) [F49], the figure is 20 ± 1%.
Same read-out and setting: as for `CCN(CC(O)c1ccccc1)c1ccccc1` (stereo not drawn) [F29], the figure is 27 ± 1%; as for `N#Cc1ccc(OC/C=C/c2ccccc2)nc1` [F11], 35 ± 6%; as for `O=C(c1ccc(Cl)s1)N1CC(c2nc(-c3ccncc3)no2)C1` [L49], 22 ± 1%.
For the molecule `O=C(CCc1ccncc1)N1CC(n2cc(-c3ccccc3)nn2)C1` [L32], the “Inhibition at 30 µM” value was found to be 29 ± 3%.
As to `Nc1ccccc1-c1nc2cc(F)c(F)cc2[nH]1` [F59], the “Inhibition at 30 µM” value is on record as 9 ± 1%.
Still for that read-out and setting: as for `O=C(NCc1ccncc1)c1cccc(Cl)c1` [F36], the figure is 25 ± 3%.
The same measure, in the same setting: as for `O=C(CSc1ccccc1)N1CC(OCc2cccc(F)c2)C1` [L55], the figure is 18 ± 3%; as for `Cc1ccc(Cn2ccnc2C(=O)Nc2ccccc2)cc1` [L30], 30 ± 5%; as for `O=C(NCc1cc(-c2ccco2)on1)c1cccc(Cl)c1` [L18], 34 ± 1%.
On the same count and under the same terms, as for `Cc1ccc(Cn2cccc2-c2nc(-c3ccncc3)no2)cc1` [L31], the figure is 29 ± 4%; as for `O=C(COc1ccccc1)NCc1cc(-c2ccc(F)cc2)on1` [L50], 20 ± 1%.
As for `CN(CCc1ccccn1)c1ccc(Cl)nn1` [F48], the “Inhibition at 30 µM” value amounted to 21 ± 1%.
Take `CC(NC(=O)c1cccc(F)c1)c1ccc(-n2cncn2)cc1` (stereo not drawn) [L53]: the “Inhibition at 30 µM” value is listed as 19 ± 2%.
On the same count and under the same terms, as for `c1ccc(-c2nsc(-n3ccnc3)n2)cc1` [F43], the figure is 23 ± 2%; as for `O=C(NCc1ccccc1)c1csc(COc2ccc(F)cc2)n1` [L19], 34 ± 3%.
In the case of `Cc1ccccc1CNc1ccc(F)c(C#N)c1` [F18], the “Inhibition at 30 µM” value is 33 ± 9%.
As for `O=C(NCc1cccnc1)c1ccc(COc2ccccc2)o1` [L27], the “Inhibition at 30 µM” value came to 31 ± 7%.
Same read-out and setting: as for `CC(c1nc(-c2ccccc2)no1)n1ccnc1` (stereo not drawn) [F21], the figure is 31 ± 1%.
On the same count and under the same terms, as for `Nc1ccccc1Sc1nc2ccccc2[nH]1` [F51], the figure is 20 ± 14%.
Consider `CC(C)C(=O)N(C)Cc1nc2ccccc2[nH]1` [F45], for which the “Inhibition at 30 µM” value came out at 22 ± 9%.
Still for that read-out and setting: as for `O=C(Nc1ccc(F)c(F)c1)C1(c2cc(-c3ccco3)on2)CC1` [L56], the figure is 18 ± 6%; as for `CSc1ccc(C(=O)N(C)Cc2nc3ccccc3[nH]2)o1` [L17], 35 ± 3%.
In the case of `CC1CN(C(=O)Nc2cccc(C#N)c2)CC(c2ccccc2)O1` (stereo not drawn) [L14], the “Inhibition at 30 µM” value came out at 38 ± 12%.
On the same count and under the same terms, as for `Cc1ccc(CNC(=O)c2ccn(COc3ccc(F)cc3)n2)o1` [L54], the figure is 18 ± 3%; as for `Cc1cccn2cc(Cn3ccccc3=O)nc12` [F58], 16 ± 5%; as for `Cc1ccc(C2CC2c2nc(CNC(=O)c3ccccc3)no2)s1` (stereo not drawn) [L26], 31 ± 7%.
The same measure, in the same setting: as for `O=C(NCc1ccc(N2CCCC2)nc1)c1cnn(-c2ccccc2)c1` [L11], the figure is 40 ± 4%; as for `Cc1csc(CNC(=O)N2CCC(COCc3ccccc3)C2)n1` (stereo not drawn) [L48], 23 ± 4%; as for `c1ccc(-n2cc(CCn3cnnc3)cn2)cc1` [F17], 33 ± 3%.
The same measure, in the same setting: as for `Clc1ncnc2cc(-c3ccccc3)[nH]c12` [F41], the figure is 24 ± 2%; as for `CC1CC1C(=O)N(C)CCOc1ccccc1` (stereo not drawn) [F15], 33 ± 9%; as for `Cc1cccc(-c2c[nH]c(C3CCCN3C(=O)c3ccccn3)n2)c1` (stereo not drawn) [L44], 26 ± 13%.
As to `O=C(CSc1n[nH]c(-c2cccnc2)n1)Nc1cccc(Cl)c1` [L21], the “Inhibition at 30 µM” value is recorded as 33 ± 12%.
The same measure, in the same setting: as for `Fc1ccc(F)c(NCCCn2ccnc2)c1` [F55], the figure is 19 ± 5%; as for `O=C(Nc1ccccc1F)OCc1cccnc1` [F34], 26 ± 4%; as for `CCn1cnnc1CNC(=O)c1cccc(C)c1` [F24], 30 ± 1%.
The same measure, in the same setting: as for `C=CCNC(=O)c1ccc(Oc2ccccc2)o1` [F13], the figure is 35 ± 10%.
Still for that read-out and setting: as for `Cc1ccc(C(C)NC(=O)c2ccc(F)cc2)o1` (stereo not drawn) [F10], the figure is 35 ± 8%.
For `Cc1ccccc1NC(=O)c1ccnc(Cl)c1` [F33], the “Inhibition at 30 µM” value amounted to 26 ± 11%.
Still for that read-out and setting: as for `COCc1cccc(Nc2ccnc(C#N)c2)c1` [F19], the figure is 32 ± 4%; as for `CC(=O)c1nc(Nc2ccccc2)sc1C` [F50], 20 ± 9%; as for `Cc1ccc(C(=O)Nc2cccc(NC(=O)c3ccncc3)c2)s1` [L51], 20 ± 6%.
The same measure, in the same setting: as for `O=C(NCc1ccnc(OCc2ccccc2)c1)c1cccc(F)c1` [L46], the figure is 24 ± 3%; as for `O=C(Nc1cccc(OCc2ccccn2)c1)c1cccc(F)c1` [L16], 36 ± 1%; as for `O=C(CSc1ccc(-n2cccn2)nn1)Nc1ccccc1Cl` [L39], 27 ± 11%.
On the same count and under the same terms, as for `C#Cc1cccc(NC(C)c2ccccc2)c1` (stereo not drawn) [F44], the figure is 23 ± 4%.
As for `O=C(CNC(=O)c1ccco1)Nc1ccccc1` [F37], the “Inhibition at 30 µM” value was 25 ± 4%.
On the same count and under the same terms, as for `Cc1cccc(C(=O)NC(C)c2ccncc2)n1` (stereo not drawn) [F39], the figure is 24 ± 9%.
On the same count and under the same terms, as for `O=C(NCc1ccnc(-n2cccn2)c1)c1ccc(Br)o1` [L29], the figure is 30 ± 9%; as for `Cc1noc(CCC(=O)N2CCC(CSc3ccccc3)C2)n1` (stereo not drawn) [L15], 37 ± 6%; as for `CC[C@H](Nc1cnn(CC)c1)c1ccc(C)cc1` [F40], 24 ± 7%.
Still for that read-out and setting: as for `OC(c1ccccc1)c1nc2cc(F)ccc2[nH]1` (stereo not drawn) [F35], the figure is 25 ± 12%.
With `CC(NC(=O)COc1ccc(Cl)cc1)C(=O)Nc1ccccc1` (stereo not drawn) [L41], the “Inhibition at 30 µM” value was found to be 26 ± 2%.
Still for that read-out and setting: as for `CN(C)C(=O)c1cc(OCc2ccccc2)no1` [F32], the figure is 27 ± 1%; as for `CN(Cc1cn2ccccc2n1)c1ccccc1` [F22], 31 ± 1%.
Same read-out and setting: as for `Cc1cc(Cn2ccc(-c3ccccc3)n2)on1` [F53], the figure is 19 ± 2%; as for `CCCOc1ccc(N2CC(C(=O)Nc3ccccn3)CC2=O)cc1` (stereo not drawn) [L47], 24 ± 3%; as for `Oc1ccccc1-c1n[nH]c(-c2ccncc2)n1` [F28], 27 ± 3%.
Same read-out and setting: as for `c1ccc(Cn2nnc(-c3ccncc3)n2)cc1` [F38], the figure is 25 ± 3%.
Regarding `COCc1cccc(Nc2cc(Cl)ncn2)c1` [F12], the “Inhibition at 30 µM” value stood at 35 ± 10%.
For `Cc1ccc(OCC(=O)N2CC(c3nc(-c4ccco4)no3)C2)cc1` [L59], the “Inhibition at 30 µM” value is reported as 15 ± 1%.
Same read-out and setting: as for `CCCn1cc(C(=O)Nc2cccc(NC(=O)c3ccncc3)c2)cn1` [L34], the figure is 29 ± 1%; as for `O=C(Nc1cccc(F)c1)C1CCN(c2ccc(F)cc2)C1=O` (stereo not drawn) [L23], 32 ± 1%; as for `Cc1cc(CN(C)C(=O)Nc2ccccc2)on1` [F14], 33 ± 4%.
On the same count and under the same terms, as for `OCc1cccc(NCc2cccc(Cl)c2)c1` [F26], the figure is 28 ± 15%.
`Cc1cccc(NC(=O)Cc2ccc(O)cc2)c1` [F5]: the “Inhibition at 30 µM” value is listed as 42 ± 5%.
As to `O=C(Nc1ccccn1)c1cc2occc2n1Cc1ccccc1` [L38], the “Inhibition at 30 µM” value stood at 27 ± 1%.
Same read-out and setting: as for `Cc1ccoc1-c1nc(Cc2ccccc2)n[nH]1` [F23], the figure is 30 ± 7%; as for `O=C(NCc1ccc(-n2cccn2)cc1)c1cc2ccccc2s1` [L12], 39 ± 6%; as for `Cc1ccc(F)c(NC(=O)C2CC(=O)N(CCc3ccccc3)C2)c1` (stereo not drawn) [L42], 26 ± 5%.
On the same count and under the same terms, as for `O=C(COc1ccc2ccccc2c1)N1CC(c2nc(C3CC3)no2)C1` [L57], the figure is 17 ± 2%.

Staying with this experiment, now noted: Table S1; radioligand displacement; mean ± SEM of two experiments.
`CC(CCOc1ccccc1)c1nc(-c2ccc(C#N)cn2)no1` (stereo not drawn) [L8] came in with a Ki of 11 ± 1 µM.

Still in this experiment, the particulars now being: radioligand displacement; mean ± SEM of two experiments.
`O=C(Nc1cccc(Cn2ccnc2)c1)c1cccc(F)c1` [L9] registered a Ki of 16 µM.

Source of the values: PMC9594040, “Structure-Based Discovery of Negative Allosteric Modulators of the Metabotropic Glutamate Receptor 5” (ACS Chemical Biology, 2022).
